The values below come from US20240366589A1, “NHE3-BINDING COMPOUNDS AND METHODS FOR INHIBITING PHOSPHATE TRANSPORT” (Ardelyx, Inc., priority 2013, published 2024).

Test [1] relates to phosphorus and calcium levels in the urine of rats. Kind of test: Urinary excretion of phosphate and calcium in rats (16 h overnight urine). Type of test: in vivo, rat.
For test [2], the system named is dietary salt-induced, partial renal ablation model of CKD. Kind of test: Dietary salt-induced, partial renal ablation model of CKD in nephrectomized rats. The class given is in vivo, rat. The method, then:
The effects of Cpd 002 (from Table E4, as the dihydrochloride salt) were tested in a dietary salt-induced, partial renal ablation model of CKD. The study design is illustrated in FIG. 11A (12 rats per group).

Test [3] concerns adenine-induced uremic rat model. Briefly: Adenine-induced uremic rat model. Type of test: in vivo. The method, then:
The effects of Cpd 002 (from Table E4, as the dihydrochloride salt) were tested in an adenine-induced uremic rat model. Rats were fed a diet including 0.75% adenine and 1.2% phosphorus during the nephritis induction phase. The basal diet during the treatment phase was normal chow including 0.3% adenine and 0.6% phosphorus for 2 weeks. The rats were pair-fed the first 5 days (groups 1 and 2 to group 3, 4 days apart), and fed ad libitum afterwards. The treatment groups were as follows: vehicle, n=10; Cpd 002, 2 mg/kg/day drug-in-chow, n=10; and Cpd 002, 5 mg/kg/day drug-in-chow, n=12. Weekly measurements were taken for serum markers and kidney function. The study design is illustrated in FIG. 8A.

The target of a further test is T1, human NaP2b (SLC34A2) (Homo sapiens, UniProt O95436).
T1 construct: host or cells: HEK293 cells (ATCC), Lipofectamine 2000, transient
T1 sequence (O95436 1-690): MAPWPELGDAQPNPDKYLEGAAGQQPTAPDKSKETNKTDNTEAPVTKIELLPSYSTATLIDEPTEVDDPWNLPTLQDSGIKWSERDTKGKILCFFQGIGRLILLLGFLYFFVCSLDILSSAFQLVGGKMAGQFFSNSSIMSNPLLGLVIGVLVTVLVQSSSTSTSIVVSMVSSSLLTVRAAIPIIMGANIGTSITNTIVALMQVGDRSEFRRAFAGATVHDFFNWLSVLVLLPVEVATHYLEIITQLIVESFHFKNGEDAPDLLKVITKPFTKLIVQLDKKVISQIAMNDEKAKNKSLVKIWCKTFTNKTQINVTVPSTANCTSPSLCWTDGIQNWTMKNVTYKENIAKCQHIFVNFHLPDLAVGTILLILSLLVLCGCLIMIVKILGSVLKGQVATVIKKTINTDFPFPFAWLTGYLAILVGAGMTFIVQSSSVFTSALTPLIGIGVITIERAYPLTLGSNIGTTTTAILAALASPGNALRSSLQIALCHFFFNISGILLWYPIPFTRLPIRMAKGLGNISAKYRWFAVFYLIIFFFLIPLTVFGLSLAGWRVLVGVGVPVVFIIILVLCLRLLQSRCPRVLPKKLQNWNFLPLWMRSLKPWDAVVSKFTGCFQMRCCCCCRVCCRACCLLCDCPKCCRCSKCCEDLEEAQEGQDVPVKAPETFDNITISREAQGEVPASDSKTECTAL
Briefly: Cell-based assay of NaP2b activity (33P uptake, transfected HEK293 cells), human NaP2b isoform a. The conditions noted are these: Table E5; HEK293, 33P uptake; dihydrochloride salt. The protocol:
Cell-based assay of NaP2b activity. The rate of phosphate (Pi) uptake into cells was measured using a modification of a literature method (see Mohrmann et al. Am. J Phys. 250(3 pt 1):G323-30, 1986). Briefly, HEK293 cells were transiently transfected with an expression clone encoding either rat or human NaP2b. The next day, transfected cells were treated with a pharmacological agent to minimize endogenous PiT-mediated phosphate transport activity, such that the only remaining sodium-dependent phosphate transport activity is that which was bestowed by introduction of the NaP2b gene. Cells were incubated with radioactive inorganic phosphate in the presence or absence of varying concentrations of test compound. After a short time, cells were washed, harvested, and the amount of hot phosphate taken up in the cells determined by liquid scintillation counting.
HEK293 cells were obtained from the American Type Culture collection and propagated per their instructions. […]
Cells were seeded into 96-well plates at 25,000 cells/well and cultured overnight. […] Cells were lysed by addition of 20 μL 0.1% Tween 80 followed by 100 μL scintillation fluid, and counted using a TopCount (Perkin Elmer). The pIC50 (the negative log of the IC50) values of the test compounds were calculated using GraphPad Prism.

Test [4] has as its system intestinal phosphate uptake. Briefly: Pharmacodynamic study with 33P oral challenge in normal function rats. The class given is in vivo, rat. As to conditions: 8 mM Pi with 33P, 10 mg/kg, dihydrochloride salts, FIG. 1A. The protocol: The compounds identified as Cpds 003, 004, and 005 (from Table E4, as their dihydrochloride salts) were tested for the ability to block intestinal phosphate uptake in rats. Rats were orally challenged with dosing solutions composed of 5 ml/kg (˜1.3 ml) of 8 mM Pi with ^33P and +/−10 mg/kg of test compound. Also included were dosing solutions further composed of either (i) 75 mM glucose+4 mM Ca or (ii) 4 mM Ca.

Where [5] appears, read: relative to vehicle-only control, 0.1-3.0 mg/kg, 16 h urine.
Where [6] appears, read: early time points, 2 and 5 mg/kg/day drug-in-chow.
Where [7] appears, read: week three, highest dose 5 mg/kg/day.

On to `CN1Cc2c(Cl)cc(Cl)cc2[C@H](c2cccc(S(=O)(=O)NCCOCCOCCNC(=O)NCCCCNC(=O)NCCOCCOCCNS(=O)(=O)c3cccc([C@@H]4CN(C)Cc5c(Cl)cc(Cl)cc54)c3)c2)C1` [Cpd 002], for which, in test [1] (increasing dosages, relative to 48 mg/kg Renvela), the urine phosphorus mass entry is given as “significantly reduced”. Further, in test [1] (setting [5]), the urine calcium mass result was “reduced” and the urine phosphorus mass entry is on record as “reduced”. Besides, in test [2] (FIG. 11B), the phosphorus urinary excretion result was “significantly reduced”. Moreover, in test [2] (dihydrochloride salt), the blood pressure entry is recorded as “improved”. In test [2] (rat, in vivo), the albuminuria entry is “improved”, the fluid overload entry is given as “improved”, the heart hypertrophy result was “improved” and the kidney hypertrophy entry is “improved”. In test [3] (setting [6]), the serum creatinine result is reported as “reduced” and the serum phosphorus result is “reduced”. In test [3] (week three), the “heart remodeling (organ weight)” value is “trend towards lesser heart and kidney remodeling”; the “kidney remodeling (organ weight)” value was “trend towards lesser heart and kidney remodeling”. In test [3] (setting [7]), the “heart calcification (tissue mineralization)” value was “trend towards reduced heart and kidney calcification”; the “kidney calcification (tissue mineralization)” value is “trend towards reduced heart and kidney calcification”. In addition, on human NaP2b (SLC34A2), the “pIC50 Human Nap2B” value is <4.5.

For the compound `CN1Cc2c(Cl)cc(Cl)cc2[C@@H](c2cccc(S(=O)(=O)NCCOCCOCCNC(=O)NCCCCNC(=O)NCCOCCOCCNS(=O)(=O)c3cccc([C@H]4CN(C)Cc5c(Cl)cc(Cl)cc54)c3)c2)C1` [Cpd 004], the “Pi uptake after 33P oral challenge” value in test [4] is “as potent at reducing Pi uptake as a persistent inhibitor such as Cpd 003”.
